The values below come from patent US20170136010A1, “ORAL SOLID PREPARATION COMPRISING ARIPIPRAZOLE AND METHOD FOR PRODUCING ORAL SOLID PREPARATION COMPRISING ARIPIPRAZOLE” (OTSUKA PHARMACEUTICAL CO., LTD, priority 2013, published 2017).

Common to all, as to format: physicochemical
The nature of series [1]: Hygroscopic test of aripiprazole anhydrous crystal, water content by Karl Fischer coulometric titration. The note with it: for Water content level (wt %) after humidification: after 24 hours at 60° C. in desiccator including water; for Water content level (wt %) before humidification: before hygroscopic test. The method, then: About 1 g of aripiprazole obtained in the Synthesis Example was weighed in each of the weighing bottles having a diameter of about 5 cm. Each of the bottles was sealed with Kimwipe, and allowed to stand in a desiccator including water. The desiccator was placed in an oven at 60° C., and allowed to stand for 24 hours.
The weighing bottles were removed from the desiccator, and allowed to stand for 16 hours or more in a desiccator (room temperature/about 30% RH) including an MgCl2/6H2O saturated salt solution, thereby removing attached excess water. The water contents of the samples before and after the hygroscopic test were measured according to the following test procedure.
0.1 g of the aripiprazole obtained in the Synthesis Example and 0.1 g of the aripiprazole obtained after the hygroscopic test were accurately weighed. Using a moisture meter (CA-200) produced by Mitsubishi Chemical Analytech Co., Ltd., a test was performed according to the coulometric titration method, which is a water content measurement method (Karl Fischer method).

Series [2] can be described thus: Mean particle size by laser diffraction scattering particle size distribution analyzer. The note with it: volume mean diameter, dry. Here is the method: The term “mean particle size” refers to volume mean diameter as calculated from the particle size distribution measured by a laser scattering particle size distribution analyzer analyzer.
The particle size of the resulting finely milled powder of highly hygroscopic aripiprazole anhydrous crystal was measured using Dry Unit 2000, which was a laser diffraction scattering particle size distribution analyzer (Laser Micron Sizer (LMS-2000e)), and the mean particle size was calculated from the obtained measurement results. […] The measurement conditions using a laser diffraction scattering particle size distribution analyzer were as follows: Particle refractive index: 1.750, imaginary part: 0.1, and dispersive pressure: 0.15 MPa.

Series [3] is described as follows: Hygroscopic test of finely milled powder, water content by Karl Fischer method. The note with it: for Water content level (wt %), hygroscopic test of finely milled aripiprazole crystal, 24 hours: 60° C., humidity 100%. The method, then: The finely milled powder obtained above was evaluated by a hygroscopic test according to the following method.
About 1 g of milled powder was weighed in a weighing bottle with a diameter of 5 cm, allowed to stand in water/desiccator in which the temperature and humidity were respectively set to 60° C. and 100%, and then allowed to stand in MgCl2.6H2O saturated salt solution/desiccator having a room temperature and humidity of about 30% for 24 hours, Thereafter, the water content was measured. The water content was measured according to the Karl Fischer method by accurately measuring 0.1 g of a sample.

Turning to `O=C1CCc2ccc(OCCCCN3CCN(c4cccc(Cl)c4Cl)CC3)cc2N1` [Lot No. 1, 7-{4-[4-(2,3-dichlorophenyl)-1-piperazinyl]butoxy}-3,4-dihydrocarbostyril], in series [1], the “Water content level (wt %) after humidification” value stood at 0.809 wt % and the “Water content level (wt %) before humidification” value worked out at 0.003 wt %.
As to `O=C1CCc2ccc(OCCCCN3CCN(c4cccc(Cl)c4Cl)CC3)cc2N1` [Reference Example 1, 7-{4-[4-(2,3-dichlorophenyl)-1-piperazinyl]butoxy}-3,4-dihydrocarbostyril], the Mean particle size in series [2] was found to be 2.6 μm. Also, in series [3], the “Water content level (wt %), hygroscopic test of finely milled aripiprazole crystal, 0 hour” value was found to be 0.10 wt % and the “Water content level (wt %), hygroscopic test of finely milled aripiprazole crystal, 24 hours” value is given as 3.37 wt %.
The like results for `O=C1CCc2ccc(OCCCCN3CCN(c4cccc(Cl)c4Cl)CC3)cc2N1` [compound 2, 7-{4-[4-(2,3-dichlorophenyl)-1-piperazinyl]butoxy}-3,4-dihydrocarbostyril] were, in that order, 5.1 μm, 0.21 wt % and 3.69 wt %.
Regarding `O=C1CCc2ccc(OCCCCN3CCN(c4cccc(Cl)c4Cl)CC3)cc2N1` [Lot No. 2, 7-{4-[4-(2,3-dichlorophenyl)-1-piperazinyl]butoxy}-3,4-dihydrocarbostyril], in series [1], the “Water content level (wt %) after humidification” value stood at 2.759 wt % and the “Water content level (wt %) before humidification” value came out at 0.032 wt %.
As for `O=C1CCc2ccc(OCCCCN3CCN(c4cccc(Cl)c4Cl)CC3)cc2N1` [compound 4, 7-{4-[4-(2,3-dichlorophenyl)-1-piperazinyl]butoxy}-3,4-dihydrocarbostyril], the Mean particle size in series [2] stood at 9.6 μm. Moreover, in series [3], the “Water content level (wt %), hygroscopic test of finely milled aripiprazole crystal, 0 hour” value is 0.29 wt % and the “Water content level (wt %), hygroscopic test of finely milled aripiprazole crystal, 24 hours” value stood at 3.90 wt %.
The like results for `O=C1CCc2ccc(OCCCCN3CCN(c4cccc(Cl)c4Cl)CC3)cc2N1` [compound 3, 7-{4-[4-(2,3-dichlorophenyl)-1-piperazinyl]butoxy}-3,4-dihydrocarbostyril] were, in that order, 8.9 μm, 0.24 wt % and 3.97 wt %.
